Format in all cases: in vivo
Test [1] relates to Uncinula necator (UNCINE). Briefly: Grape powdery mildew (UNCINE) whole-plant fungicidal test. As to conditions: 1 Day Protectant.
In test [2] the test system is Glomerella lagenarium; anamorph: Colletotrichum lagenarium (COLLLA). The test is described as follows: Cucumber anthracnose (COLLLA) whole-plant fungicidal test. As to conditions: 1 Day Protectant. As to the method: (§1) All fungicides were evaluated using the aforementioned method for their activity vs. all target diseases, unless stated otherwise. Wheat leaf blotch and brown rust activity were also evaluated using track spray applications, in which case the fungicides were formulated as EC formulations, containing 0.1% Trycol 5941 in the spray solutions. Wheat plants (variety Yuma) were grown from seed in a greenhouse in 50% mineral soil/50% soil-less Metro mix until the first leaf was fully emerged, with 7-10 seedlings per pot. These plants were inoculated with an aqueous spore suspension of Septoria tritici either prior to or after fungicide treatments. After inoculation the plants were kept in 100% relative humidity (one day in a dark dew chamber followed by two to three days in a lighted dew chamber at 20° C.) to permit spores to germinate and infect the leaf. The plants were then transferred to a greenhouse set at 20° C. for disease to develop. When disease symptoms were fully expressed on the 1st leaves of untreated plants, infection levels were assessed on a scale of 0 to 100 percent disease severity. Percent disease control was calculated using the ratio of disease severity on treated plants relative to untreated plants. Cucumber seedlings (variety Bush Pickle) were propagated in soil-less Metro mix, with each pot having one plant, and used in the test when 12 to 14 days old. […]

Test [3] concerns Cercospora beticola (CERCBE). The test is described as follows: Leaf spot of sugar beets (CERCBE) whole-plant fungicidal test. As to conditions: sugar beet, 1 Day Protectant. Here is the method: as §1, with “Sugar beet plants” for “Cucumber seedlings”, “HH88)” for “Bush Pickle)”, “grown” for “propagated”, “mix” for “mix, with each pot having one plant,”, “trimmed regularly” for “used in the test when 12”, “maintain a uniform plant size prior to test.” for “14 days old.”

Test [4] relates to Mycosphaerella graminicola; anamorph: Septoria tritici (SEPTTR). Briefly: Leaf blotch of wheat (SEPTTR) whole-plant fungicidal test. As to conditions: Zymoseptoria tritici, topical, low volume (track spray) application, 121.5 g/H.
In test [5] the test system is Venturia inaequalis (VENTIN). Briefly: Apple scab (VENTIN) whole-plant fungicidal test. As to conditions: 1 Day Protectant.
Test [6] deals with Erysiphe cichoracearum (ERYSCI). The test is described as follows: Powdery mildew of cucumber (ERYSCI) whole-plant fungicidal test. As to conditions: 1 Day Protectant.
Test [7] has as its system Alternaria solani (ALTESO). The test is described as follows: Tomato early blight (ALTESO) whole-plant fungicidal test. As to conditions: 1 Day Protectant. Here is the method:
as §1, with “Tomato plants” for “Cucumber seedlings”, “Outdoor Girl)” for “Bush Pickle)”, “used” for “used in the test”

Test [8] relates to Leptosphaeria nodorum (LEPTNO). Briefly: Wheat glume blotch (LEPTNO) whole-plant fungicidal test. As to conditions: 1 Day Protectant.

Where two headings read alike, the source gives them in different places. Bounds are passed on as bounds.

As for `CCCC[C@@H]1[C@@H](Cc2ccc(C(F)(F)F)cc2)CCC[C@H](NC(=O)c2nccc(OC)c2OCOC(C)=O)C(=O)O[C@H]1C` [Compound 3], the “Disease Control at 100 ppm UNCINE 1DP” value in test [1] was “A (>70)”. Further, the “Disease Control at 100 ppm COLLLA 1DP” value in test [2] was “A (>70)”. Moreover, in test [3], the “Disease Control at 100 ppm CERCBE 1DP” value was “B (≦70)”. The pest or weed control at 121.5 g/ha in test [4] (24 h, 1 Day Protectant, read-out: Low Volume activity at 121.5 g/H SEPTTR 1DP (% disease control rating)) is > 70%; in test [4] (72 h, 3 Day Curative, read-out: Low Volume activity at 121.5 g/H SEPTTR 3DC (% disease control rating)), > 70%. In addition, the “Disease Control at 100 ppm VENTIN 1DP” value in test [5] is “A (>70)”. For the same molecule, the “Disease Control at 100 ppm ERYSCI 1DP” value in test [6] was “A (>70)”. For the same molecule, the “Disease Control at 100 ppm ALTESO 1DP” value in test [7] is on record as “A (>70)”. Moreover, in test [8], the “Disease Control at 100 ppm LEPTNO 1DP” value is on record as “A (>70)”.

The values above are taken from patent US20150322051A1, “Macrocyclic picolinamides as fungicides” (Dow AgroSciences LLC, priority 2014, published 2015).
